Experiments:
Format in all cases: in vivo
barnyard grass [1] = experiment: Test Example 1: weedkilling efficacy, preemergent weed treatment in the submerged state; A: barnyard grass; conditions: treatment dosage 252 g/ha
In short: (§1)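 Alluvial soil in Wagner pots flooded to 4 cm; barnyard grass, bulrush and oval-leafed pondweed seeds sown, then 2.5-leaf rice seedlings transplanted. Same day, emulsified compound diluted in water to set g/ha dosages and applied to water surface; greenhouse 25–30 °C, effect scored by criteria after 3 weeks.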

bulrush [2] = experiment: Test Example 1: weedkilling efficacy, preemergent weed treatment in the submerged state; B: bulrush; conditions: treatment dosage 252 g/ha
In short: as §1

oval-leafed pondweed [3] = experiment: Test Example 1: weedkilling efficacy, preemergent weed treatment in the submerged state; C: oval-leafed pondweed; conditions: treatment dosage 252 g/ha
In short: as §1

transplanted rice = experiment: Test Example 1: preemergent weed treatment in the submerged state, effect on crop; a: transplanted rice; conditions: treatment dosage 252 g/ha
In short: as §1

barnyard grass [4] = experiment: Test Example 2: weedkilling efficacy, growth period weed treatment in the submerged state; A: barnyard grass; conditions: treatment dosage 252 g/ha
In short: (§2)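 First, alluvial soil in pots is flooded to 4 cm and mixed seed is sown. Next, plants grow in a greenhouse at 25 to 30° C until the 1-2 leaf stage. Then diluted emulsion is applied onto the water surface at the given g/ha rate, and injury is assessed after 3 weeks.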

bulrush [5] = experiment: Test Example 2: weedkilling efficacy, growth period weed treatment in the submerged state; B: bulrush; conditions: treatment dosage 252 g/ha
In short: as §2

oval-leafed pondweed [6] = experiment: Test Example 2: weedkilling efficacy, growth period weed treatment in the submerged state; C: oval-leafed pondweed; conditions: treatment dosage 252 g/ha
In short: as §2

crabgrass [7] = experiment: Test Example 3: weedkilling efficacy through soil treatment; D: crabgrass; conditions: treatment dosage 315 g/ha
In short: (§3)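 Crop and weed responses were judged three weeks after a uniform surface spray of the water-diluted emulsion at the given g/ha rate. Seeds sat beneath about 1.5 cm of sterilized diluvial soil, and boxes stood in a greenhouse at 25 to 30° C.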

green foxtail [8] = experiment: Test Example 3: weedkilling efficacy through soil treatment; E: green foxtail; conditions: treatment dosage 315 g/ha
In short: as §3

wild oat [9] = experiment: Test Example 3: weedkilling efficacy through soil treatment; G: wild oat; conditions: treatment dosage 315 g/ha
In short: as §3

black-grass [10] = experiment: Test Example 3: weedkilling efficacy through soil treatment; H: black-grass; conditions: treatment dosage 315 g/ha
In short: as §3

Italian ryegrass [11] = experiment: Test Example 3: weedkilling efficacy through soil treatment; I: Italian ryegrass; conditions: treatment dosage 315 g/ha
In short: as §3

Indian mallow [12] = experiment: Test Example 3: weedkilling efficacy through soil treatment; K: Indian mallow; conditions: treatment dosage 315 g/ha
In short: as §3

redroot pigweed [13] = experiment: Test Example 3: weedkilling efficacy through soil treatment; L: redroot pigweed; conditions: treatment dosage 315 g/ha
In short: as §3

fig-leafed goosefoot [14] = experiment: Test Example 3: weedkilling efficacy through soil treatment; M: fig-leafed goosefoot; conditions: treatment dosage 315 g/ha
In short: as §3

chickweed [15] = experiment: Test Example 3: weedkilling efficacy through soil treatment; N: chickweed; conditions: treatment dosage 315 g/ha
In short: as §3

catchweed [16] = experiment: Test Example 3: weedkilling efficacy through soil treatment; O: catchweed; conditions: treatment dosage 315 g/ha
In short: as §3

directly sown rice [17] = experiment: Test Example 3: soil treatment, effect on crop; b: directly sown rice; conditions: treatment dosage 315 g/ha
In short: as §3

corn [18] = experiment: Test Example 3: soil treatment, effect on crop; c: corn; conditions: treatment dosage 315 g/ha
In short: as §3

soybean [19] = experiment: Test Example 3: soil treatment, effect on crop; d: soybean; conditions: treatment dosage 315 g/ha
In short: as §3

wheat [20] = experiment: Test Example 3: soil treatment, effect on crop; e: wheat; conditions: treatment dosage 315 g/ha
In short: as §3

beet [21] = experiment: Test Example 3: soil treatment, effect on crop; f: beet; conditions: treatment dosage 315 g/ha
In short: as §3

crabgrass [22] = experiment: Test Example 4: weedkilling efficacy by foliar treatment; D: crabgrass; conditions: treatment dosage 315 g/ha
In short: (§4)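 Seeds are spot-sown into sterilized diluvial soil and covered with about 1.5 cm of soil. After 14 days' greenhouse growth at 25 to 30° C, plants are sprayed on stems and leaves with diluted emulsion at the stated g/ha rate, then scored at 3 weeks.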

green foxtail [23] = experiment: Test Example 4: weedkilling efficacy by foliar treatment; E: green foxtail; conditions: treatment dosage 315 g/ha
In short: as §4

wild oat [24] = experiment: Test Example 4: weedkilling efficacy by foliar treatment; G: wild oat; conditions: treatment dosage 315 g/ha
In short: as §4

black-grass [25] = experiment: Test Example 4: weedkilling efficacy by foliar treatment; H: black-grass; conditions: treatment dosage 315 g/ha
In short: as §4

Italian ryegrass [26] = experiment: Test Example 4: weedkilling efficacy by foliar treatment; I: Italian ryegrass; conditions: treatment dosage 315 g/ha
In short: as §4

Indian mallow [27] = experiment: Test Example 4: weedkilling efficacy by foliar treatment; K: Indian mallow; conditions: treatment dosage 315 g/ha
In short: as §4

redroot pigweed [28] = experiment: Test Example 4: weedkilling efficacy by foliar treatment; L: redroot pigweed; conditions: treatment dosage 315 g/ha
In short: as §4

fig-leafed goosefoot [29] = experiment: Test Example 4: weedkilling efficacy by foliar treatment; M: fig-leafed goosefoot; conditions: treatment dosage 315 g/ha
In short: as §4

chickweed [30] = experiment: Test Example 4: weedkilling efficacy by foliar treatment; N: chickweed; conditions: treatment dosage 315 g/ha
In short: as §4

catchweed [31] = experiment: Test Example 4: weedkilling efficacy by foliar treatment; O: catchweed; conditions: treatment dosage 315 g/ha
In short: as §4

birds-eye speedwell = experiment: Test Example 4: weedkilling efficacy by foliar treatment; p: birds-eye speedwell; conditions: treatment dosage 315 g/ha
In short: as §4

directly sown rice [32] = experiment: Test Example 4: foliar treatment, effect on crop; b: directly sown rice; conditions: treatment dosage 315 g/ha
In short: as §4

corn [33] = experiment: Test Example 4: foliar treatment, effect on crop; c: corn; conditions: treatment dosage 315 g/ha
In short: as §4

soybean [34] = experiment: Test Example 4: foliar treatment, effect on crop; d: soybean; conditions: treatment dosage 315 g/ha
In short: as §4

wheat [35] = experiment: Test Example 4: foliar treatment, effect on crop; e: wheat; conditions: treatment dosage 315 g/ha
In short: as §4

beet [36] = experiment: Test Example 4: foliar treatment, effect on crop; f: beet; conditions: treatment dosage 315 g/ha
In short: as §4

Structure (SMILES) | A (barnyard grass) weedkilling efficacy grade (barnyard grass [1]) | B (bulrush) weedkilling efficacy grade (bulrush [2]) | C (oval-leafed pondweed) weedkilling efficacy grade (oval-leafed pondweed [3]) | a (transplanted rice) effect on crop grade (transplanted rice) | A (barnyard grass) weedkilling efficacy grade (barnyard grass [4]) | B (bulrush) weedkilling efficacy grade (bulrush [5]) | C (oval-leafed pondweed) weedkilling efficacy grade (oval-leafed pondweed [6]) | D (crabgrass) weedkilling efficacy grade (crabgrass [7]) | E (green foxtail) weedkilling efficacy grade (green foxtail [8]) | G (wild oat) weedkilling efficacy grade (wild oat [9]) | H (black-grass) weedkilling efficacy grade (black-grass [10]) | I (Italian ryegrass) weedkilling efficacy grade (Italian ryegrass [11]) | K (Indian mallow) weedkilling efficacy grade (Indian mallow [12]) | L (redroot pigweed) weedkilling efficacy grade (redroot pigweed [13]) | M (fig-leafed goosefoot) weedkilling efficacy grade (fig-leafed goosefoot [14]) | N (chickweed) weedkilling efficacy grade (chickweed [15]) | O (catchweed) weedkilling efficacy grade (catchweed [16]) | b (directly sown rice) effect on crop grade (directly sown rice [17]) | c (corn) effect on crop grade (corn [18]) | d (soybean) effect on crop grade (soybean [19]) | also measured
CC1=C(c2ccccc2)C(=O)N(C(C)(C)C(=O)Nc2cc(Br)ccn2)CO1 [B-2-30] | 5 (weed kill ratio 90% or more, (practically complete withering)) | 5 (weed kill ratio 90% or more, (practically complete withering)) | 5 (weed kill ratio 90% or more, (practically complete withering)) | 1 (weed kill ratio 5% or more, less than 20%) | 5 (weed kill ratio 90% or more, (practically complete withering)) | 5 (weed kill ratio 90% or more, (practically complete withering)) | 3 (weed kill ratio 40% or more, less than 70%) | 5 (weed kill ratio 90% or more, (practically complete withering)) | 5 (weed kill ratio 90% or more, (practically complete withering)) | 5 (weed kill ratio 90% or more, (practically complete withering)) | 5 (weed kill ratio 90% or more, (practically complete withering)) | 5 (weed kill ratio 90% or more, (practically complete withering)) | 3 (weed kill ratio 40% or more, less than 70%) | 3 (weed kill ratio 40% or more, less than 70%) | 5 (weed kill ratio 90% or more, (practically complete withering)) | 4 (weed kill ratio 70% or more, less than 90%) | 5 (weed kill ratio 90% or more, (practically complete withering)) | 4 (weed kill ratio 70% or more, less than 90%) | 1 (weed kill ratio 5% or more, less than 20%) | 1 (weed kill ratio 5% or more, less than 20%) | e (wheat) effect on crop grade (wheat [20]): 0 (weed kill ratio 5% or less (practically no effect)); f (beet) effect on crop grade (beet [21]): 4 (weed kill ratio 70% or more, less than 90%); D (crabgrass) weedkilling efficacy grade (crabgrass [22]): 5 (weed kill ratio 90% or more, (practically complete withering)); E (green foxtail) weedkilling efficacy grade (green foxtail [23]): 5 (weed kill ratio 90% or more, (practically complete withering)); G (wild oat) weedkilling efficacy grade (wild oat [24]): 3 (weed kill ratio 40% or more, less than 70%); H (black-grass) weedkilling efficacy grade (black-grass [25]): 3 (weed kill ratio 40% or more, less than 70%); I (Italian ryegrass) weedkilling efficacy grade (Italian ryegrass [26]): 4 (weed kill ratio 70% or more, less than 90%); K (Indian mallow) weedkilling efficacy grade (Indian mallow [27]): 4 (weed kill ratio 70% or more, less than 90%); L (redroot pigweed) weedkilling efficacy grade (redroot pigweed [28]): 4 (weed kill ratio 70% or more, less than 90%); M (fig-leafed goosefoot) weedkilling efficacy grade (fig-leafed goosefoot [29]): 4 (weed kill ratio 70% or more, less than 90%); N (chickweed) weedkilling efficacy grade (chickweed [30]): 3 (weed kill ratio 40% or more, less than 70%); O (catchweed) weedkilling efficacy grade (catchweed [31]): 4 (weed kill ratio 70% or more, less than 90%); P (birds-eye speedwell) weedkilling efficacy grade (birds-eye speedwell): 4 (weed kill ratio 70% or more, less than 90%); b (directly sown rice) effect on crop grade (directly sown rice [32]): 5 (weed kill ratio 90% or more, (practically complete withering)); c (corn) effect on crop grade (corn [33]): 1 (weed kill ratio 5% or more, less than 20%); d (soybean) effect on crop grade (soybean [34]): 4 (weed kill ratio 70% or more, less than 90%); e (wheat) effect on crop grade (wheat [35]): 0 (weed kill ratio 5% or less (practically no effect)); f (beet) effect on crop grade (beet [36]): 4 (weed kill ratio 70% or more, less than 90%)
CC1=C(c2ccccc2)C(=O)N(C(C)(C)C(=O)Nc2cc(C(F)(F)F)cc(Cl)n2)CO1 [B-2-37] | 5 (weed kill ratio 90% or more, (practically complete withering)) | 5 (weed kill ratio 90% or more, (practically complete withering)) | 5 (weed kill ratio 90% or more, (practically complete withering)) | 2 (weed kill ratio 20% or more, less than 40%) | 5 (weed kill ratio 90% or more, (practically complete withering)) | 5 (weed kill ratio 90% or more, (practically complete withering)) | 5 (weed kill ratio 90% or more, (practically complete withering)) | 5 (weed kill ratio 90% or more, (practically complete withering)) | 5 (weed kill ratio 90% or more, (practically complete withering)) | 5 (weed kill ratio 90% or more, (practically complete withering)) | 5 (weed kill ratio 90% or more, (practically complete withering)) | 5 (weed kill ratio 90% or more, (practically complete withering)) | 4 (weed kill ratio 70% or more, less than 90%) | 5 (weed kill ratio 90% or more, (practically complete withering)) | 4 (weed kill ratio 70% or more, less than 90%) | 4 (weed kill ratio 70% or more, less than 90%) | 4 (weed kill ratio 70% or more, less than 90%) | 3 (weed kill ratio 40% or more, less than 70%) | 1 (weed kill ratio 5% or more, less than 20%) | 0 (weed kill ratio 5% or less (practically no effect)) | e (wheat) effect on crop grade (wheat [20]): 0 (weed kill ratio 5% or less (practically no effect)); f (beet) effect on crop grade (beet [21]): 4 (weed kill ratio 70% or more, less than 90%); D (crabgrass) weedkilling efficacy grade (crabgrass [22]): 5 (weed kill ratio 90% or more, (practically complete withering)); E (green foxtail) weedkilling efficacy grade (green foxtail [23]): 5 (weed kill ratio 90% or more, (practically complete withering)); G (wild oat) weedkilling efficacy grade (wild oat [24]): 3 (weed kill ratio 40% or more, less than 70%); H (black-grass) weedkilling efficacy grade (black-grass [25]): 4 (weed kill ratio 70% or more, less than 90%); I (Italian ryegrass) weedkilling efficacy grade (Italian ryegrass [26]): 4 (weed kill ratio 70% or more, less than 90%); K (Indian mallow) weedkilling efficacy grade (Indian mallow [27]): 4 (weed kill ratio 70% or more, less than 90%); L (redroot pigweed) weedkilling efficacy grade (redroot pigweed [28]): 4 (weed kill ratio 70% or more, less than 90%); M (fig-leafed goosefoot) weedkilling efficacy grade (fig-leafed goosefoot [29]): 3 (weed kill ratio 40% or more, less than 70%); N (chickweed) weedkilling efficacy grade (chickweed [30]): 4 (weed kill ratio 70% or more, less than 90%); O (catchweed) weedkilling efficacy grade (catchweed [31]): 3 (weed kill ratio 40% or more, less than 70%); P (birds-eye speedwell) weedkilling efficacy grade (birds-eye speedwell): 4 (weed kill ratio 70% or more, less than 90%); b (directly sown rice) effect on crop grade (directly sown rice [32]): 4 (weed kill ratio 70% or more, less than 90%); c (corn) effect on crop grade (corn [33]): 4 (weed kill ratio 70% or more, less than 90%); d (soybean) effect on crop grade (soybean [34]): 3 (weed kill ratio 40% or more, less than 70%); e (wheat) effect on crop grade (wheat [35]): 1 (weed kill ratio 5% or more, less than 20%); f (beet) effect on crop grade (beet [36]): 4 (weed kill ratio 70% or more, less than 90%)
